Results published in paper PMC9020709, “Hepcidin is potential regulator for renin activity” (PLoS ONE, 2022).
Entries after “also recorded” stand apart in the source; their conditions may differ. Where no end group is shown, it is not given here.

Legend:
renin = assay: Renin inhibitor screening kit (fluorometric FRET, DABCYL-EDANS); type: biochemical; details: for Mean inhibitory effect on renin activity: 5 min pre-incubation at 37°C, read every 60 s for 60 min at 37°C, ex/em 328/552 nm; for Renin inhibition (in words): 10, 100 and 500 nM, in vitro, 37°C
Procedure: (§1) Activity measurements for all three enzymes (renin, ACE1 and ACE2) were carried out using commercial inhibition kits following manufacturer’s instructions. Screening kits were purchased from Biovision (Biovision, Inc. San Francisco, CA). Candidate inhibitors used were human hepcidin-25/LEAP-1 (disulfide bonds between Cys7–Cys23, Cys10–Cys13, Cys11–Cys19, and Cys14–Cys22, purity assessed by HPLC ≥ 98.0%) purchased from Peptides International (Peptides International Inc, Louisville, KY) as well as N-terminal part of hepcidin, Asp-Thr-His-Phe-Pro (hepcidin-5) synthetized by Proteogenix (Schiltigheim, France).
All kits included the enzyme, substrate, and enzyme inhibitor as negative control. The fluorophore labelled substate was cleaved by the enzyme. The used fluorophores were a synthetic o-aminobenzoyl peptide for ACE1, 7-Methoxycoumarin-4-acetic acid (MCA) for ACE2 and 5-((2-Aminoethyl)amino)naphthalene-1-sulfonic acid (EDANS) for renin. DABCYL-EDANS is well-known FRET pair where fluorescence is quenched when peptide is uncleaved. Fluorescence signal is increased after peptide is cleaved and EDANS molecule is free in the solution. The fluorescence intensity was recorded and calculated as follows. According to renin inhibitor screening kit instructions hepcidin-25 and hepcidin-5 were first pipetted to a black ForteBio’s 96-well plate. Renin enzyme solution was added and mixed. Both candidate inhibitors were measured with final sample concentrations of 10 nM, 100 nM and 500 nM. The plate was incubated for 5 min at 37°C. Finally, substrate solution was added into each well. Fluorescence measurement was performed using Perkin Elmer UV/VIS Envision multimode plate reader. Excitation and emission wavelengths were 328 and 552 nm, respectively. Fluorescence was recorded every 60 s for 60 min at 37°C. Inhibitory activity of renin was calculated as follows: Renininhibitoryactivity(%)=1−Activitywithsample/Activitywithoutsamplex100 where “Activity with sample” is the slope calculated from the linear range of the fluorescence plot at the presence of candidate inhibitor. Activity without the sample represents the slope without any sample in the well.
Mean enzyme inhibitory activities with the standard error of means were calculated at different concentrations. Data analysis was performed using Microsoft Office 365 ProPlus Excel version 1902 for Windows. The hepcidin–renin binding data was treated as follows: Background was subtracted, and the data was normalised to allow comparison between experiments. The normalised data was analysed with […] regression analysis in GraphPad Prism 5.02 (GraphPad Software, La Jolla, CA) assuming one-site specific binding.

[1] = tested on: angiotensin-converting enzyme 1 (ACE1); assay: ACE1 inhibition screening kit (fluorometric); type: biochemical
Procedure: as §1
(§2) All kits included the enzyme, substrate, and enzyme inhibitor as negative control. […] DABCYL-EDANS is well-known FRET pair where fluorescence is quenched when peptide is uncleaved. Fluorescence signal is increased after peptide is cleaved and EDANS molecule is free in the solution. The fluorescence intensity was recorded and calculated as follows. […] Both candidate inhibitors were measured with final sample concentrations of 10 nM, 100 nM and 500 nM. […] Fluorescence measurement was performed using Perkin Elmer UV/VIS Envision multimode plate reader. […] Fluorescence was recorded every 60 s for 60 min at 37°C. […]
Briefly, ACE1 enzyme solution was added to a 96-well plate and each diluted candidate enzyme inhibitors were added. […] Fluorescence was recorded every 60s for 100 min at 37°C. […]

[2] = tested on: angiotensin-converting enzyme 2 (ACE2); assay: ACE2 inhibition screening kit (fluorometric); type: biochemical; details: 10, 100 and 500 nM; 15 min pre-incubation at room temperature, read every 60 s for 60 min, ex/em 320/420 nm; n = 3-6-4 (hepcidin-25), 3-6-3 (hepcidin-5)
Procedure: as §1
as §2, with “control. The fluorophore labelled substate was cleaved by the enzyme.” for “control.”
(§3) Mean enzyme inhibitory activities with the standard error of means were calculated at different concentrations. […]

human renin = assay: Bio-layer interferometry, hepcidin-renin binding; details: biotinylated renin on sensors; analyte 12.5-100 μM; ForteBio Octet RED384, PBS pH 7.2 and 150 mM NaCl, 27°C; association 0–1200 s, dissociation 1200–2000 s
Procedure: Human prorenin coding gene was ordered from GeneArt in pcDNA3.1(+) as fusion protein with a C-terminal His-tag. The pcDNA3.1 vector confers ampicillin resistance. Plasmid was dissolved in 50 μl of TE-EF and the amount of 100 ng was transferred into Escherichia coli TOP10 cells (Invitrogen, UK) with the heat shock method (30 s). In the next day colonies were picked for midiprep isolation. A single colony was picked and cultured in 5 ml media supplemented with 100 μg/ml ampicillin and 5 mM glucose for 7 hours after which it is moved to 200 ml LB media, which included ampicillin and glucose, and grown overnight at 37°C 220 rpm. The plasmid DNA was isolated using Nucleobond Xtra Midi Plus EF Kit (Macherey-Nagel, #7404220). Plasmid DNA produced was endotoxin-free. Human prorenin was then produced in ExpiCHO cells.
Cell pellet was re-suspended in 20 ml buffer (50 mM Hepes, 200 mM NaCl, 10% Glycerol, 1 mM TCEP, pH 7.5) and protease inhibitor tablet was added. Cell lysis was made with sonicator (1 min, 50%, 2 sec on/5 sec off cycle). […]
Biotinylation of renin was done using NHS-PEG4-Biotin (ThermoFisher Scientific) at 1:1 molar ratio. […] Concentration of biotinylated protein was measured using NanoDrop™ One Uv-Vis spectrophotometer (ThermoFisher Scientific). […]
as §3

ACE1 inhibitory activity (strongest) ([1]; 500 nM, 15 min pre-incubation at 37°C, read every 60 s for 100 min at 37°C, ex/em 330/430 nm, n = 6) [%]	ACE2 inhibition (in words) [2]	Binding to renin (association and dissociation curves, in words) (human renin)	Substance	Mean inhibitory effect on renin activity (renin; 10 nM peptide, n = 2) [%]	Mean inhibitory effect on renin activity (renin; 100 nM peptide, n = 3) [%]	Mean inhibitory effect on renin activity (renin; 500 nM peptide, n = 3) [%]	Renin inhibition (in words) (renin)	ACE1 inhibition (in words) ([1]; 10, 100 and 500 nM, 37°C, n = 5-6-1 for hepcidin-25)
34.8			Asp-Thr-His-Phe-Pro [hepcidin-5, N-terminal part of hepcidin, synthetized by Proteogenix]	50.1	50.0	58.6	stronger effect on renin than hepcidin-25	
	not inhibited remarkably	concentration dependent	hepcidin-25: human hepcidin-25/LEAP-1 (disulfide bonds between Cys7–Cys23, Cys10–Cys13, Cys11–Cys19, and Cys14–Cys22), purchased from Peptides International	20.4	29.2	38.3	has an inhibitory effect on renin in vitro; also recorded: can bind to renin enzyme and inhibit its activity in vitro; also recorded: can bind to the active site of renin and inhibit its activity in vitro	not inhibited remarkably; also recorded: low inhibitory activity
		cannot bind to renin	hepcidin-20: control peptide, purchased from Pepnet; truncated isoform without N-terminal hepcidin-5 (ICIFCCGCCHRSKCGMCCKT; ends and bridges not checked; cysteine pairing not given here; UniProt P81172 65-84, looked up)					
